From patent EP4692096A1, “MACROCYCLIC COMPOUND, AND PHARMACEUTICAL COMPOSITION AND USE THEREOF” (Prime Gene Therapeutics Co., Ltd., priority 2023, dated 2024)
Like-named read-outs stand apart in the source and are kept apart here. Values belong to the molecule of their own block, whether it stands above or below them.

Experiments:
[1] = Blood-brain penetration test in rats; assay type: in vivo, Male SD rats; details: for Kp at 0.5 h / Kp at 5 min / concentration at 0.5 h: male, SD, rat; for Kp at 0.5 h / Kp at 5 min: brain/plasma; for Kp at 5 min: IV 2 mg/kg, 5 min after administration; for concentration at 0.5 h: 0.5 h after oral administration (PO, 10 mg/kg)
Experimental: Male SD rats were divided into groups of three animals each, which were administered the compounds to be tested either by single oral gavage (PO, 10 mg/kg) or by single intravenous injection (IV, 2 mg/kg). Animals were fasted overnight prior to dosing, beginning 10 hours before administration and continuing until 4 hours after dosing. Rats were sacrificed at 0.5 hours after PO administration (or 5 min after IV administration). Blood and brain tissues were collected. The samples were centrifuged at 4000 rpm for 5 min at 4 °C, and plasma was transferred to centrifuge tubes and stored at -80°C until analysis. Plasma samples were processed by protein precipitation extraction, and the extracts were analyzed by LC/MS/MS.

JAK1-JH2 = biological target: T1, JAK1-JH2 (Homo sapiens, UniProt P23458); assay: Enzymatic activity (IC50) assay against JAK1-JH2 (fluorescence polarisation, JH2 probe 1); assay type: binding
T1 construct: Enzymatic activity(IC50) assay of compounds against TYK2-JH2 and JAK1-JH2
Experimental: (§1) Using an Echo liquid handler, 50 nL of the compound to be tested was transferred into a 384-well reaction plate, in duplicate wells for each compound. The plate was subjected to centrifugation at 1000 rpm for 1 min and the final DMSO concentration was 0.5%. Subsequently, 5 µL of TYK2 (or JAK1) was added to the plate, centrifuged at 1000 rpm for 1 min, and incubated at 25 °C for 10 min. Then, 5 µL of JH2 probe 1 was added to the plate, centrifuged at 1000 rpm for 1 min, and incubation at 25 °C for 60 min. FP 520/48 signals were measured using a BMG high-throughput multifunctional plate reader. Data from the TYK2-JH2 assay were analyzed using GraphPad Prism 8 software. […] After calculating inhibition rates, IC50 values (half-maximal inhibitory concentrations) of the control compounds and the compounds to be tested were determined using nonlinear regression fitting of software. [formula] • Datapositive control: mean value of positive control wells • Datanegative control: mean value of negative control wells

TYK2-JH2 = biological target: T2, TYK2-JH2 (Homo sapiens, UniProt P29597); assay: Enzymatic activity (IC50) assay against TYK2-JH2 (fluorescence polarisation, JH2 probe 1); assay type: binding
T2 construct: Enzymatic activity(IC50) assay of compounds against TYK2-JH2 and JAK1-JH2
Experimental: as §1

[2] = Pharmacokinetic experiment in rats; assay type: in vivo, Male SD rats; details: for Vd: plasma, iv, 2 mg/kg
Experimental: Male SD rats were divided into groups of three animals each, which were administered the compound of Example 2 by intravenous injection (2 mg/kg), administered the compound of Example 2 by single oral gavage (10 mg/kg), and administered a control compound by single oral gavage (10 mg/kg), respectively. Animals were fasted overnight prior to dosing, beginning 10 hours before administration and continuing until 4 hours after dosing. For the intravenous group, blood samples were collected at 0.0833, 0.25, 0.5, 1, 2, 4, 6, 8, and 24 h post-dose. For the oral administration groups, blood samples were collected at 0.25, 0.5, 1, 2, 4, 6, 8, and 24 h post-dose. Blood samples (0.3 mL) were collected from the retro-orbital venous plexus under isoflurane anesthesia into heparinized tubes. The samples were centrifuged at 4000 rpm for 5 min at 4 °C, and plasma was transferred to centrifuge tubes and stored at -80°C until analysis. Plasma samples were processed by protein precipitation extraction, and the extracts were analyzed by LC/MS/MS. Pharmacokinetic results are shown in Tables 2 and 3: Table 2: Pharmacokinetic parameters of the compound in Example 2 in rat plasma after intravenous administration

[3] = read-out: brain/blood concentration ratio
[4] = male, SD, rat plasma, intravenous injection 2 mg/kg
[5] = male, SD, rat plasma, single oral gavage 10 mg/kg

T1 sequence (P23458 583-855 limits assumed): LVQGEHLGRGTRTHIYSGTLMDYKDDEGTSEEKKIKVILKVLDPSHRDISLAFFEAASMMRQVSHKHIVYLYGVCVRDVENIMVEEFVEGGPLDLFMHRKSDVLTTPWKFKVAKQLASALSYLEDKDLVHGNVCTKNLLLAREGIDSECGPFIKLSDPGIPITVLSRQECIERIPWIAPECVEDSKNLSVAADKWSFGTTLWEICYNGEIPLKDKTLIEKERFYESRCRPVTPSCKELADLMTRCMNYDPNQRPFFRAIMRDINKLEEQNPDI
T2 sequence (P29597 589-875 limits assumed): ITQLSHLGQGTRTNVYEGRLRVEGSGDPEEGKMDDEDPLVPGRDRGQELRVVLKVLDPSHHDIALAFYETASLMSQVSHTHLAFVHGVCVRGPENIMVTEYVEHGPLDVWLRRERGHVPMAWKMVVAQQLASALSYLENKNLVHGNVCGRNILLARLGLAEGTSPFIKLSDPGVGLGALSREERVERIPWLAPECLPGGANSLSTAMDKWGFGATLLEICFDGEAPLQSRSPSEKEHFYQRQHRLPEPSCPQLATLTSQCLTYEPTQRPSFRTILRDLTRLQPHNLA

SMILES: [2H]C([2H])([2H])NC(=O)c1nnc(NC(=O)C2CC2)cc1Nc1cccc(-c2ncn(C)n2)c1OC [Deucravacitinib, reference compound]
brain penetration (in words) [1]: very low brain penetration | Kp at 0.5 h ([1]; PO 10 mg/kg, 0.5 hours after administration, read-out: brain/blood concentration ratio): 0.032

SMILES: CNc1cc2nn3c(cnc13)C(=O)O[C@H](C)COCc1ccc(OC)c(c1)N2 [Example 1, (7R,E)-3^6-methoxy-7-methyl-1^8-(methylamino)-5,8-dioxa-2-aza-1(6,3)-imidazo[1,2-b]pyridazin-3(1,3)-benzocyclononan-9-one]
Kp at 5 min [1, 3]: 3.15 | IC50 (JAK1-JH2): > 5000 nM | IC50 (TYK2-JH2): < 5 nM

SMILES: CNc1cc2nn3c(cnc13)C(=O)O[C@@H]1CCC[C@@H]1OCc1cc(c3nnn(C)c3c1)N2 [Example 5, (6^1R,6^2R,E)-3^1-methyl-1^8-(methylamino)-3^1H-5,7-dioxa-2-azazo-1(6,3)-imidazo[1,2-b]pyridazine-3(4,6)-benzo[d][1,2,3]triazole-6(1,2)-cyclopentane cyclooctafuran-8-one]
Kp at 5 min [1, 3]: 1.21 | IC50 (JAK1-JH2): > 5000 nM | IC50 (TYK2-JH2): < 5 nM

SMILES: CNc1cc2nc3c(cnn13)C(=O)O[C@@H]1CCC[C@H]1OCc1cc(c3nnn(C)c3c1)N2 [Example 6, (1^3E,1^4E,6^1R,6^2R)-3^1-methyl-1^7-(methylamino)-3^1H-5,7-dioxa-2-azazo-1(5,3)-pyrazolo[1,5-a]pyrimidine-3(4,6)-benzo[d][1,2,3]triazole-6(1,2)-cyclopentane cyclooctafuran-8-one]
Kp at 5 min [1, 3]: 0.322 | IC50 (TYK2-JH2): < 10 nM

SMILES: CNc1cc2nn3c(cnc13)C(=O)O[C@H](C)COCc1cc(c(=O)n(C)c1)N2 [Example 7, (1^5E,3^3E,7R)-3^1,7-dimethyl-1^8-(methylamino)-3^1,3^2-dihydro-5,8-dioxa-2-azazo-1(6,3)-imidazo[1,2-b]pyridazine-3(3,5)-pyridine heterocyclononane-3^2,9-dione]
IC50 (JAK1-JH2): > 5000 nM | IC50 (TYK2-JH2): < 5 nM

SMILES: CNc1cc2nc3c(cnn13)C(=O)O[C@H](C)COCc1cc(c(=O)n(C)c1)N2 [Example 8, (R,1^3E,1^4E,3^3E)-3^1,7-dimethyl-1^7-(methylamino)-3^1,3^2-dihydro-5,8-dioxa-2-azazo-1(5, 3)-pyrazolo[1,5-a]pyrimidine-3 (3,5)-pyridine heterocyclononane-3^2,9-dione]
IC50 (JAK1-JH2): > 5000 nM | IC50 (TYK2-JH2): < 5 nM

SMILES: CNc1cc2nn3c(cnc13)C(=O)N[C@@H]1CCC[C@H]1OCc1cc(c3nnn(C)c3c1)N2 [control compound A, reference compound]
brain penetration (in words) [1]: very low brain penetration | Kp at 5 min [1, 3]: 0.0879 | IC50 (JAK1-JH2): > 1000 nM | IC50 (TYK2-JH2): < 5 nM | AUC(0-inf) [2, 5]: 735 ng·h/mL | AUC(0-t) [2, 5]: 592 ng·h/mL | Cmax [2, 5]: 126 ng/mL | MRT [2, 5]: 3.16 h | Tmax [2, 5]: 1.83 h | half-life [2, 5]: 3.07 h

Second part, led by results:

brain penetration (in words) [1]: remarkably high brain penetration | brain/blood concentration ratio ([1]; PO 10 mg/kg, 0.5 hours after administration): 508% | concentration at 0.5 h ([1]; brain, read-out: concentration in brain tissue): 2620 ng/mL | Kp at 0.5 h ([1]; 10 mg/kg, 0.5 hours post oral dosing, printed as plain ratio, read-out: brain-blood concentration ratio): 5.08 | concentration at 0.5 h ([1]; plasma, read-out: concentration in plamsa): 515 ng/mL | IC50 (JAK1-JH2): > 5000 nM | IC50 (TYK2-JH2): < 5 nM | Vd ([2]; male, SD, rat, rat plasma, intravenous injection 2 mg/kg, read-out: Vss): 1.28 L/kg | Vd ([2]; male, SD, rat, rat plasma, intravenous injection 2 mg/kg, read-out: Vz): 1.33 L/kg | AUC(0-inf) [2, 4]: 2030 ng·h/mL | AUC(0-t) [2, 4]: 2020 ng·h/mL | C0 [2, 4]: 2260 ng/mL | MRT [2, 4]: 1.28 h | clearance [2, 4]: 16.7 mL/min/kg | half-life [2, 4]: 0.93 h | AUC(0-inf) [2, 5]: 5780 ng·h/mL | AUC(0-t) [2, 5]: 5770 ng·h/mL | Cmax [2, 5]: 2460 ng/mL | MRT [2, 5]: 1.97 h | Tmax [2, 5]: 0.5 h | half-life [2, 5]: 2.46 h | Bioavialibility ([2]; rat, oral 10 mg/kg vs intravenous 2 mg/kg): 57.1%
SMILES: CNc1cc2nc3c(cnn13)C(=O)OC(C)COCc1ccc(OC)c(c1)N2 [Example 2, (R,1^3E,1^4E)-3^6-methoxy-7-methyl-1^7-(methylamino)-5,8-dioxa-2-aza-1(5,3)-pyrazolo[1,5-a]pyrimidin-3(1,3)-benzheterocyclononan-9-one]
oral drug exposure (in words) ([2]; rat, single oral gavage 10 mg/kg): much better than that of the control compounds A and B

IC50 (JAK1-JH2): > 5000 nM | IC50 (TYK2-JH2): < 20 nM
SMILES: CNc1cc2nn3c(cnc13)C(=O)OC[C@H](C)OCc1ccc(OC)c(c1)N2 [Example 3, (6S, E)-3^6-methoxy-6-methyl-1^8-(methylamino)-5,8-dioxa-2-azazo-1(6,3)-imidazo[1,2-b]pyridazine-3(1,3)-benzheterocyclononan-9-one]

IC50 (JAK1-JH2): > 5000 nM | IC50 (TYK2-JH2): < 20 nM
SMILES: CNc1cc2nc3c(cnn13)C(=O)OCC(C)OCc1ccc(OC)c(c1)N2 [Example 4, (S, 1^3E,1^4E)-3^6-methoxy-6-methyl-1^7-(methylamino)-5,8-dioxa-2-azazo-1(5,3)-pyrazolo[1,5-a]pyrimidine-3(1,3)-benzheterocyclononan-9-one]

Kp at 5 min [1, 3]: 0.228 | AUC(0-inf) [2, 5]: 332 ng·h/mL | AUC(0-t) [2, 5]: 327 ng·h/mL | Cmax [2, 5]: 192 ng/mL | MRT [2, 5]: 1.63 h | Tmax [2, 5]: 0.5 h | half-life [2, 5]: 1.08 h
SMILES: CNc1cc2nc3c(cnn13)C(=O)N[C@H](C)COCc1ccc(OC)c(c1)N2 [control compound B, reference compound]
